Values after ≈ are worked out from the molar mass of the structure shown. Values joined by “and” are separate entries in the source; they are usually repeats but may differ in a detail not shown here. Identical values can stand only once. Counter-ions that a name gives are not always drawn.
Columns and labels:
[1] = tested on: patients with degenerative osteoarticular affections; assay: Clinical trial, i.m. 500 mg/day, efficacy in degenerative osteoarticular diseases; type: in vivo, human
Text: In a subsequent clinical trial, 33 human subjects were used with an average age of 73.8±6.8, the minimum age being 61 and the maximum age 88; 7 of the subjects were males and the remaining 26 were female.
These subjects presented osteoarticular diseases of a chronic or subacute type, in which, during the period of observation, an evolutive flare-up of a pre-existing mono- or polyarticular arthrosic process was verified, as well as the appearance ex novo of an arthralgic picture with functional impotence of the osteoarticular segments which previously appeared to be undamaged.
In these cases, the parenteral route of administration was used so as to obtain, in view of the watersoluble characteristics of the test material, a more rapid symptomatic control. Furthermore, this method of administration permits a ready control of any differences in gastric tolerance as compared with the oral administration route, which is more commonly used.
The test substance was injected in the morning between 8 and 8.30 a.m. Before starting the therapy, midway through it and immediately after it, the following parameters were controlled in order to ascertain how effective the treatment had been: Lansbury's dynamometer (the values of muscular strength were expressed in kg.); the range of articular flexion and extension (the basal finding was expressed conventionally with the notations "+" to "+++," the successive findings being assessed as "unchanged," "increased" or "decreased," compared with the pre-treatment findings; subjective algesic symptomatology, the criteria of evaluation being similar to those adopted for determining the range of articular flexion and extension; finger tip-floor distance test, obtained by measuring the distance between the tips of the fingers and the floor when the subject bends forward; and morning stiffness, this being the time taken for the disappearance of stiffness on awakening.
Thus, for the evaluation of the test substance, it was thus possible to have 3 quantitative parameters (morning stiffness, Lansbury's index and finger tip-floor distance) and 2 semiquantitative parameters (pain symptomatology and flexo-extension strength). This is sufficient to obtain a reliable therapeutic profile in the test subjects, where the subjective element plays a predominant role in determining the clinical picture, as well as the therapeutic response.
The numerical data obtained were analysed statistically by means of the calculation of the Student "t" test on the mean values found before and after treatment.

occult blood in faeces = assay: Occult blood in faeces (benzidine test); type: in vivo, human
Procedure: In cases with a history of gastroenteric disorders, even if not drug-dependent, the faeces were tested for the presence of occult blood, using the benzidine test.

Solubility = type: physicochemical
pH of aqueous solution = type: physicochemical
[2] = total mean values, especially during the first 3 hours
Procedure: The blood levels were then determined after 0.5, 1, 1.5, 2, 3, 4 and 5 hours.

Stability = settings: salt or its aqueous solution
[3] = tested on: carrageenin oedema, inflamed paw; assay: Carrageenin oedema of the rat paw (anti-inflammatory action, paw size/volume); type: in vivo, male Wistar rats; settings: Table 2, 100 mg/kg p.o. (lysine salt: 60 as active substance)
gastro-intestinal mucosa = settings: known from the art; cited from earlier work
[4] = tested on: pain threshold in the inflamed paw (carrageenin oedema); assay: Pain threshold under pressure of the inflamed (carrageenin) rat paw (analgesic action); settings: Table 3, 100 mg/kg p.o. (lysine salt: 60 as active substance)
Procedure: At intervals after the treatment, the size of the treated paw and its sensitivity to pain under pressure were evaluated.

[5] = of 18 cases with major initial involvement
[6] = end of experiment, of 14 positive before treatment

Question: With `CC(C)Cc1ccc(C(C)C(=O)O)cc1` (racemic) [Example 1] as the compound, how does the “Cases with increase of flexo-extension strength” value ([1]; 33 patients, i.m. 500 mg/day) read?
Answer: Its value is 36.3%.

Question: And the “Cases with spontaneous pain reduced following treatment” value ([1]; 33 patients, i.m. 500 mg/day)?
Answer: Its value is 27 cases.

Question: What about the “Cases with spontaneous pain reduced following treatment (%)” value ([1]; 33 patients, i.m. 500 mg/day) of the same compound?
Answer: Its value is 81.8%.

Question: And the “Morning stiffness, mean after treatment” value ([1]; Table 7, after i.m. 500 mg/day, s.d. ± 8.2)?
Answer: Its value is 18.93 min.

Question: What about the “Morning stiffness, mean before treatment” value ([1]; Table 7, before treatment (baseline), s.d. ± 6.62) of the same compound?
Answer: The value was 20.17 min.

Question: What about the “Lansbury test, mean before treatment” value ([1]; Table 7, before treatment (baseline), s.d. ± 9.19) of the same compound?
Answer: The value was 30.96 kg.

Question: What about the “Fingertip-floor distance, mean before treatment” value ([1]; Table 7, before treatment (baseline), s.d. ± 12.4) of the same compound?
Answer: The value was 33.17 cm.

Question: And the “Fingertip-floor distance, after treatment” value ([1]; Table 7, i.m. 500 mg/day, individual patients in order of case no. (cases 7, 8, 9, 14, 27-31, 33 not given), listed as lysine isobutylphenyl propionate)?
Answer: Its value is 45 cm and 40 cm and 30 cm and 28 cm and 15 cm and 11 cm and 6 cm and 20 cm and 24 cm and 48 cm and 38 cm and 18 cm and 46 cm and 35 cm.

Question: And the “Morning stiffness, after treatment” value ([1]; Table 7, i.m. 500 mg/day, individual patients in order of case no. (cases 8, 9, 14, 26 not given), listed as lysine isobutylphenyl propionate)?
Answer: The value was 30 min and 10 min and 0 min and 8 min and 2 min and 12 min and 25 min and 15 min and 11 min and 5 min and 9 min and 23 min and 18 min and 22 min and 20 min.

Question: What about the Radiologic changes ([1]; after treatment vs before) of the same compound?
Answer: Its Radiologic changes is “no radiologic changes”.

Question: And the “Lansbury test, pre- vs post-treatment mean values” ([1]; i.m. 500 mg/day)?
Answer: Its value is “similar”.

Question: And the “Overall safety and clinical efficacy” value ([1]; i.m. 500 mg/day)?
Answer: Its value is “safe and clinically effective”.

Question: And the “P, difference between pre- and post-treatment duration of morning stiffness” value ([1]; i.m. 500 mg/day, Student t test)?
Answer: Its value is < 0.01.

Question: What about the “Patients with "excellent" effect” value ([1]; i.m. 500 mg/day, of 33) of the same compound?
Answer: Its value is 25 patients.

Question: And the “Patients with "fair" result” value ([1]; i.m. 500 mg/day, of 33)?
Answer: Its value is 4 patients.

Question: What about the “Patients with "poor" or "nil" effect” value ([1]; i.m. 500 mg/day, of 33) of the same compound?
Answer: The value was 4 patients.

Question: What about the “Patients with marked improvement of flexo-extension strength” value [1, 5] of the same compound?
Answer: The value was 10 patients.

Question: And the “Patients with marked improvement of flexo-extension strength (%)” value [1, 5]?
Answer: Its value is 55.5%.

Question: And the “Anaemia in blood counts” value (occult blood in faeces; end of experiment)?
Answer: The value was “did not reveal any cases of anaemia which could be considered pathological or at the most suspect”.

Question: And the “Faecal occult blood: haematic loss disappeared” value (occult blood in faeces; [6])?
Answer: Its value is 1 case.

Question: What about the “Faecal occult blood: haematic loss reduced” value (occult blood in faeces; [6]) of the same compound?
Answer: The value was 6 cases.

Question: And the “Faecal occult blood: haematic loss slightly increased” value (occult blood in faeces; [6])?
Answer: Its value is 2 cases.

Question: And the “Faecal occult blood: haematic loss unchanged” value (occult blood in faeces; [6])?
Answer: The value was 5 cases.

Question: And the “Faecal occult blood positive in pretreatment phase” value (occult blood in faeces; pretreatment (baseline))?
Answer: The value was 14 subjects.

Question: And the solubility (Solubility; in water)?
Answer: The solubility was ~400 mg/mL (≈ 1940 mM).

Question: And the “pH of aqueous solution” value (pH of aqueous solution)?
Answer: Its value is “substantially neutral pH”.

Question: What about the “Blood levels compared with oral sodium salt” value [2] of the same compound?
Answer: Its value is “higher blood levels are always obtained, especially during the first 3 hours, than after the oral administration of the sodium salt”.

Question: With `CC(C)Cc1ccc(CC(=O)O)cc1` [Example 14, D,L-arginine salt of 2-(4-isobutyl-phenyl)-acetic acid] as the compound, how does the “Solubility in water” value (Solubility) read?
Answer: Its value is “moderately soluble in water”.

Question: What about the “pH of aqueous solution” value (pH of aqueous solution) of the same compound?
Answer: The value was “pH close to neutrality”.

Question: What about the “Stability” value (Stability) of the same compound?
Answer: The value was “stable solution”.

Question: What does the source list for `CCCCC1C(=O)N(c2ccccc2)N(c2ccccc2)C1=O` [Phenyl-butazone, phenylbutazone]?
Answer: Paw volume - carrageenin oedema ([3]; 0 hrs, control 1.16 ± 0.02): 1.18 ± 0.02 mL; Paw volume, % variation referred to control ([3]; 3 hrs): -25.4%; Paw volume, % variation referred to control ([3]; 4 hrs): -23.6%; Paw volume - carrageenin oedema ([3]; 4 hrs, control 2.29 ± 0.05, **p = 0.01): 1.75 ± 0.05 mL; Paw volume, % variation referred to control ([3]; 5 hrs): -22.0%; Paw volume - carrageenin oedema ([3]; 5 hrs, control 2.36 ± 0.06, **p = 0.01): 1.84 ± 0.05 mL; Undesired side-effects (gastro-intestinal intolerance, ulceration) compared with phenyl-alkanoic acids (gastro-intestinal mucosa): also show these undesired side-effects in an even more pronounced form; Pain threshold - carrageenin oedema ([4]; 0 hrs, control 101.7 ± 3.19): 105.3 ± 3.03 g; Pain threshold - carrageenin oedema ([4]; 3 hrs, control 52.7 ± 2.00, **p = 0.01): 122.7 ± 2.92 g; Pain threshold - carrageenin oedema ([4]; 5 hrs, control 51.3 ± 2.15, **p = 0.01): 83.7 ± 4.04 g

Question: With `COc1ccc2c(c1)c(CC(=O)O)c(C)n2C(=O)c1ccc(Cl)cc1` [indomethacine] as the compound, how does the “Undesired side-effects (gastro-intestinal intolerance, ulceration) compared with phenyl-alkanoic acids” value (gastro-intestinal mucosa) read?
Answer: The value was “also show these undesired side-effects in an even more pronounced form”.

— patent US4279926A, “Method of relieving pain and treating inflammatory conditions in warm-blooded animals” (priority 1974, dated 1981)
